“Also recorded” adds a separate entry of the source.
Experiments:
[1] = target: T1, MAO-B (Homo sapiens, UniProt P27338); experiment: hMAO-B inhibition, spectrophotometric assay; details: for inhibition at 10 µM: read-out: MAO-B % Inhibition, single dose concentration of 10 µM; for Selectivity index for inhibition of MAO-B: IC50 MAO-A divided by IC50 MAO-B
T1 sequence (P27338 1-520): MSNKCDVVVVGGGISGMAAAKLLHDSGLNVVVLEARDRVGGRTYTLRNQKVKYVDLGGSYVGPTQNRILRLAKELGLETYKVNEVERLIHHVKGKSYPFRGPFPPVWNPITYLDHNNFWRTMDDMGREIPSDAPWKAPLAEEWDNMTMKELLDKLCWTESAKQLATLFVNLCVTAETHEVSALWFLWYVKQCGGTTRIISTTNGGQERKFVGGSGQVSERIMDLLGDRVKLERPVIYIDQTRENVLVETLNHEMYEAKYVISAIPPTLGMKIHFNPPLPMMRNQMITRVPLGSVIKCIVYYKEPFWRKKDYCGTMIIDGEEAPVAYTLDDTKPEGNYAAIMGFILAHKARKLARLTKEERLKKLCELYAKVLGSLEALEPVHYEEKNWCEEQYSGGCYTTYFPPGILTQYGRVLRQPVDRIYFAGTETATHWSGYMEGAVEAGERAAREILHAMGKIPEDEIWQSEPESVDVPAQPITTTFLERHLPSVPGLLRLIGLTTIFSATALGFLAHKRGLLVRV
Method: The inhibitory activities of the compounds against hMAO-A and hMAO-B enzymes were evaluated referring to a previously described method (Supporting information)[49].

[2] = target: T2, recombinant human MAO-A (Homo sapiens, UniProt P21397); experiment: hMAO-A inhibition, spectrophotometric assay; format: biochemical; details: for inhibition at 10 µM: single dose concentration of 10 µM
T2 sequence (P21397 1-527): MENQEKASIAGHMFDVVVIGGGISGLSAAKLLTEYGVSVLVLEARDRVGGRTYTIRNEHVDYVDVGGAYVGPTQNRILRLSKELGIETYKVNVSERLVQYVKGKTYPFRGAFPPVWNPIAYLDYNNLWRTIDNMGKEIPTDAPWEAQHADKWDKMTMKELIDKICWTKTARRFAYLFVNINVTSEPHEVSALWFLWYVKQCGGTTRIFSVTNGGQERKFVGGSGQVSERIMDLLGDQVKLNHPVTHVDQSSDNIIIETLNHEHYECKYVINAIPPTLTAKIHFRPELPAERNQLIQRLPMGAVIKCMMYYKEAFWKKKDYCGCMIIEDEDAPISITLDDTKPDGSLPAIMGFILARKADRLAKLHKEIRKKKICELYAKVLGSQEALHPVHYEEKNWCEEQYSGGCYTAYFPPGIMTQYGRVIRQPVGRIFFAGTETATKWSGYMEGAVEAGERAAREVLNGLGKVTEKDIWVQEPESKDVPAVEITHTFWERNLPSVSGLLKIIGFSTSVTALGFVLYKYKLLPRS
Description: Two different MAO isoforms are known.

[3] = system: LPS-treated BV2 cells (PGE2 production); experiment: LPS-induced production of PGE2 in BV2 cells; format: cell-based; details: different concentrations, Figure 3(B)
Method: (§1) Neuroinflammation is a crucial component in neurodegenerative diseases. Chronic activation of microglia, which are the brain-resident form of macrophages, results in sustained production of several proinflammatory mediators including glial NO, PGE2, and others molecules that are implicated in multiple neurodegenerative diseases. […] In this regard, LPS-treated BV2 cells were incubated with or without different concentrations of each compound. […] Based on collective results of antineuroinflammatory activity evaluation, in conjugation with above-conducted MAO inhibitions’ assays, compound 1p might be claimed as a promising lead compound eliciting polypharmacological effects combining inhibition of neuroinflammation and MAO-B activity; both processes are crucial components of neurodegenerative diseases such as PD.
(§2) The abilities of compounds to inhibit the induced production of NO and PGE2 were assessed by well-known protocol as indicated in the Supporting information.

[4] = system: LPS-treated BV2 cells (NO production); experiment: LPS-induced production of nitric oxide in BV2 cells; format: cell-based; details: different concentrations, Figure 3(A)
Method: as §1, §2

[5] = system: BV2 cells; experiment: BV2 cell viability, WST-1 assay; format: cell-based; details: doses of 1, 10, 30 and 50 µM
Description: Promising antineurodegenrative candidate molecules should not impair viability of CNS cells. Microglia are critical cells within CNS involved in microglia–neuron communications and are responsible for maintenance of brain integrity and health[61]^,[62]. However, under neuroinflammatory conditions, aberrant activation of microglia contributes to neurodegeneration and disease progression. In this regard, suppression of the abnormal activation while maintenance of viability of microglia is important considerations. […] The viability assay was carried out using the water-soluble tetrazolium reagent WST-1 which eliminates the formazan dissolution step requested in case of MTT[65] employing multiple doses of 1, 10, 30, and 50 µM. […] In lieu of this, it might be inferred that these compounds showing effective inhibition of MAO-B activity and triggering no impairment of microglia viability are good candidates might be advanced for further evaluation towards the development of multifunctional molecules for neurodegenerative diseases such as PD.
The impact of the compounds on the viability of cells was performed by the well-known WST-1 assay method as described in the Supporting information.

[6] = target: T1, MAO-B; experiment: MAO-B inhibition reversibility testing (washing); format: biochemical; details: enzymatic activity after washing
Method: (§3) To get insights into MAO-B inhibition reaction by compounds 1p and 1y, a kinetic study and reversibility testing were conducted. As illustrated in Figure 4(A,B), Michaelis–Menten graphs were constructed using different concentrations of compounds 1p and 1y employing different concentrations benzylamine as a substrate.
(§4) Kinetics of the inhibition of MAO-B and testing of reversibility were conducted according to literature-reported protocols[59] as indicated in the Supporting information.

[7] = target: T1, MAO-B; experiment: MAO-B inhibition kinetic study (Michaelis–Menten, Lineweaver–Burk); format: biochemical
Method: as §3, §4

SMILES | IC50 [1] | inhibition at 10 µM [1] | IC50 [2] | inhibition at 10 µM [2] | Selectivity index for inhibition of MAO-B [1] | Reversibility of MAO-B inhibition [6] | Ki ([7]; benzylamine as substrate) | Effect on LPS-induced PGE2 production by BV2 cells [3] | Effect on LPS-induced NO production by BV2 cells [4] | Impact on viability of BV2 cells [5] | Type of MAO-B inhibition ([7]; Lineweaver–Burk plots)
O=C1/C(=C/c2ccc(O)cc2)Oc2cc(O)ccc21 [Hispidol, hispidol, reference compound] | – | – | 5.28 µM | 69.3% | – | – | – | effectively suppressed the induced-PGE2 production | significant inhibition of NO production | cytotoxic effects | –
COc1cccc(/C=C2\Oc3cc(O)ccc3C2=O)c1 [Compound 1j] | 2.41 µM | 73.2% | > 100 µM | 7.43% | >41 | – | – | – | – | – | –
COc1cccc(/C=C2\Oc3cc(O)ccc3C2=O)c1OC [Compound 1l] | 3.52 µM | 70.8% | > 100 µM | -2.21% | >28 | – | – | – | – | – | –
C[C@H](NCc1ccc(OCc2cccc(F)c2)cc1)C(N)=O [Safinamide, safinamide, reference compound] | – | – | – | – | – | – | – | undesirable dose-dependent increase in PGE2 production | significant inhibition of NO production | cytotoxic effects | –
COc1ccc(/C=C2\Oc3cc(O)ccc3C2=O)cc1 [Compound 1k] | 0.365 µM | 94.6% | 6.98 µM | 53% | – | – | – | – | – | – | –
COc1cc(/C=C2\Oc3cc(O)ccc3C2=O)cc(OC)c1 [Compound 1o] | > 10 µM | 41.2% | > 10 µM | 0.37% | – | – | – | – | – | – | –
COc1ccc2c(c1)O/C(=C\c1ccccc1O)C2=O [Compound 1r] | > 10 µM | 22.5% | > 10 µM | 2.29% | – | – | – | – | – | – | –
COc1ccc2c(c1)O/C(=C\c1cccc(O)c1)C2=O [Compound 1s] | > 10 µM | 48.9% | > 10 µM | 7.73% | – | – | – | – | – | – | –
COc1ccc2c(c1)O/C(=C\c1ccccc1OC)C2=O [Compound 1x] | 0.593 µM | 89.5% | > 100 µM | 21.6% | >168 | – | – | – | – | none of the tested concentrations | –
COc1ccccc1/C=C1\Oc2cc(O)ccc2C1=O [Compound 1i] | 1.84 µM | 75.5% | > 100 µM | 5.49% | >54 | – | – | – | – | – | –
COc1cccc(/C=C2\Oc3cc(OC)ccc3C2=O)c1 [Compound 1y] | 0.201 µM | 99.2% | > 100 µM | 3.26% | >496 | washing restored the enzymatic activity | 0.0291 µM | – | – | none of the tested concentrations | competitive inhibitors; also recorded: Competitive inhibition
COc1ccc(OC)c(/C=C2\Oc3cc(O)ccc3C2=O)c1 [Compound 1m] | > 10 µM | 46.3% | > 10 µM | -0.29% | – | – | – | – | – | – | –
COc1ccc2c(c1)O/C(=C\c1ccc(O)cc1O)C2=O [Compound 1v] | 6.04 µM | 66.7% | 8.2 µM | 55.7% | – | – | – | – | – | – | –
COc1ccc(/C=C2\Oc3cc(O)ccc3C2=O)cc1OC [Compound 1n] | > 10 µM | 42.6% | > 10 µM | 4.52% | – | – | – | – | – | – | –
COc1ccc2c(c1)O/C(=C\c1ccc(O)cc1)C2=O [Compound 1t] | 1.33 µM | 89.6% | > 100 µM | 8.54% | >75 | – | – | – | – | – | –
COCOc1ccc(/C=C2\Oc3cc(O)ccc3C2=O)cc1 [Compound 1q] | 0.593 µM | 89% | > 100 µM | 24.5% | >168 | – | – | – | – | none of the tested concentrations | –
COc1ccc2c(c1)O/C(=C\c1cccc(O)c1O)C2=O [Compound 1u, (Z)-2–(2,3-Dihydroxybenzylidene)-6-methoxybenzofuran-3(2H)-one] | 2.41 µM | 65% | 7.04 µM | 52.8% | – | – | – | – | – | – | –

More lines, main results first:

IC50 [1] | inhibition at 10 µM [1] | IC50 [2] | inhibition at 10 µM [2] | Selectivity index for inhibition of MAO-B [1] | Reversibility of MAO-B inhibition [6] | Ki ([7]; benzylamine as substrate) | SMILES | Effect on LPS-induced PGE2 production by BV2 cells [3] | Effect on LPS-induced NO production by BV2 cells [4] | Impact on viability of BV2 cells [5] | Type of MAO-B inhibition ([7]; Lineweaver–Burk plots)
> 10 µM | 12.8% | > 10 µM | 35.7% | – | – | – | O=C1/C(=C/c2cc(O)cc(O)c2)Oc2cc(O)ccc21 [Compound 1g, (Z)-2–(3,5-Dihydroxybenzylidene)-6-hydroxybenzofuran-3(2H)-one] | – | – | – | –
> 10 µM | < 50% | > 10 µM | 9.02% | – | – | – | O=C1/C(=C/c2ccccc2O)Oc2cc(O)ccc21 [Compound 1a] | – | – | – | –
3 µM | 58.9% | > 10 µM | 46.2% | >3.34 | – | – | O=C1/C(=C/c2cccc(O)c2O)Oc2cc(O)ccc21 [Compound 1c, (Z)-2–(2,3-Dihydroxybenzylidene)-6-hydroxybenzofuran-3(2H)-one] | – | – | – | –
> 10 µM | 13.6% | > 10 µM | 16.6% | – | – | – | O=C1/C(=C/c2cccc(O)c2)Oc2cc(O)ccc21 [Compound 1b] | – | – | – | –
3.52 µM | 61.4% | 7.77 µM | 53.3% | 2.21 | – | – | O=C1/C(=C/c2cc(O)ccc2O)Oc2cc(O)ccc21 [Compound 1f] | – | – | – | –
2.41 µM | 61.8% | 4.66 µM | 64.9% | 1.93 | – | – | O=C1/C(=C/c2ccc(O)c(O)c2)Oc2cc(O)ccc21 [Compound 1e] | – | – | – | –
2.41 µM | 70.5% | 5.62 µM | 60.8% | – | – | – | COc1ccc2c(c1)O/C(=C\c1ccc(O)c(O)c1)C2=O [Compound 1w] | – | – | – | –
> 10 µM | 48.3% | > 10 µM | 44.1% | – | – | – | O=C1/C(=C/c2ccc(O)cc2O)Oc2cc(O)ccc21 [Compound 1d] | – | – | – | –
> 10 µM | 47.5% | > 10 µM | 49.5% | – | – | – | O=C1/C(=C/c2cc(O)c(O)c(O)c2)Oc2cc(O)ccc21 [Compound 1h] | – | – | – | –
